Source: patent publication US20120238549A1, “Nuclear Hormone Receptor Modulators” (ABBOTT LABORATORIES, priority 2011, published 2012)
pIC50: −log10 of the molar value.

Target: T1, Glucocorticoid Receptor (GR) (Homo sapiens, UniProt P04150)
T1 construct: purchased Invitrogen P2893
T1 sequence (P04150 1-777): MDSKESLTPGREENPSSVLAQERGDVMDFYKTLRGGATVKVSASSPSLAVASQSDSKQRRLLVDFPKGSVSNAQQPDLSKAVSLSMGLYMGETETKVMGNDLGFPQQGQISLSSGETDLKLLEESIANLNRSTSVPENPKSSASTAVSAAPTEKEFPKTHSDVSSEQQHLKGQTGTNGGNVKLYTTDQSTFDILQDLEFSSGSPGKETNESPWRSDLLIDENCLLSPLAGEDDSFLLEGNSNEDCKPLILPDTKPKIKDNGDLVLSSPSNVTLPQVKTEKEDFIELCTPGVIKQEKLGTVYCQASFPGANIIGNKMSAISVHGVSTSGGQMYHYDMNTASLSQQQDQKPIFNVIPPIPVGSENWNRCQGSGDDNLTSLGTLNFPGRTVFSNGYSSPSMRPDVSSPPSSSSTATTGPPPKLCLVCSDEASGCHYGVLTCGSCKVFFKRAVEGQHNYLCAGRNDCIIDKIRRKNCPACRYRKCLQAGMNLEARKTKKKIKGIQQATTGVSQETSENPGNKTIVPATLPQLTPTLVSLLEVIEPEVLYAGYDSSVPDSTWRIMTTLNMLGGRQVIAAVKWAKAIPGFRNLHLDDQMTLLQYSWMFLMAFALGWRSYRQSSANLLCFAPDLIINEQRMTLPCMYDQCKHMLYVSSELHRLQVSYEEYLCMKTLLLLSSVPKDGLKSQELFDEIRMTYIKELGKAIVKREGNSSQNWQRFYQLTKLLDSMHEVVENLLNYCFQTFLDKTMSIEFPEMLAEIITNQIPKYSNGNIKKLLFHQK
Assay: GR Florescence Polarization Assay (PolarScreen Glucocorticoid Receptor Competitor Assay, Red)
Conditions: Fluorescense polarization binding ranges; competition with fluorescent glucocorticoid, incubated overnight at 4° C.
Procedure, shortened: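 Competitive fluorescence polarization using fluorescent glucocorticoid tracer and human GR in kit buffer. Compounds serially diluted 1:4 in DMSO, incubated with tracer and GR overnight at 4 °C before polarization read.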

First: CCC[C@@]12CC[C@](O)(CC)C[C@@H]1CCCc1cc(C(=O)Nc3cccnc3C)ccc12.CCC[C@]12CC[C@@](O)(CC)C[C@H]1CCCc1cc(C(=O)Nc3cccnc3C)ccc12 [Example 26, (7aR,9S,11aS)-9-Ethyl-9-hydroxy-11a-propyl-6,7,7a,8,9,10,11,11a-octahydro-5H-dibenzo[a,c]cycloheptene-3-carboxylic acid (2-methyl-pyridin-3-yl)-amide; compound with (7aS,9R,11aR)-9-ethyl-9-hydroxy-11a-propyl-6,7,7a,8,9,10,11,11a-octahydro-5H-dibenzo[a,c]cycloheptene-3-carboxylic acid (2-methyl-pyridin-3-yl)-amide]
Second: CCC[C@@]12CC[C@@](O)(CC)C[C@@H]1CCCc1cc(C(=O)Nc3cccnc3C)ccc12.CCC[C@]12CC[C@](O)(CC)C[C@H]1CCCc1cc(C(=O)Nc3cccnc3C)ccc12 [Example 27, (7aR,9R,11aS)-9-ethyl-9-hydroxy-11a-propyl-6,7,7a,8,9,10,11,11a-octahydro-5H-dibenzo[a,c]cycloheptene-3-carboxylic acid (2-methyl-pyridin-3-yl)-amide; compound with (7aS,9S,11aR)-9-ethyl-9-hydroxy-11a-propyl-6,7,7a,8,9,10,11,11a-octahydro-5H-dibenzo[a,c]cycloheptene-3-carboxylic acid (2-methyl-pyridin-3-yl)-amide]
The pIC50 of the first is higher: over 7.00 for the first, 5.00 to 6.00 for the second. The first is the more potent here.

First: CCC[C@@]12CC[C@](O)(Cc3ccccc3)C[C@@H]1CCCc1cc(C(=O)Nc3cccnc3C)ccc12.CCC[C@]12CC[C@@](O)(Cc3ccccc3)C[C@H]1CCCc1cc(C(=O)Nc3cccnc3C)ccc12 [Example 34, (7aS,9R,11aR)-9-Benzyl-9-hydroxy-11a-propyl-6,7,7a,8,9,10,11,11a-octahydro-5H-dibenzo[a,c]cycloheptene-3-carboxylic acid (2-methyl-pyridin-3-yl)-amide; compound with (7aR,9S,11aS)-9-benzyl-9-hydroxy-11a-propyl-6,7,7a,8,9,10,11,11a-octahydro-5H-dibenzo[a,c]cycloheptene-3-carboxylic acid (2-methyl-pyridin-3-yl)-amide]
Second: CCC[C@@]12CC[C@@](O)(Cc3ccccc3)C[C@@H]1CCCc1cc(C(=O)Nc3cccnc3C)ccc12.CCC[C@]12CC[C@](O)(Cc3ccccc3)C[C@H]1CCCc1cc(C(=O)Nc3cccnc3C)ccc12 [Example 35]
The pIC50 of the first is higher: over 7.00 for the first, 5.00 to 6.00 for the second.

First: O=C1CC[C@@]2(Cc3ccccc3)C(=O)CCCC[C@H]2C1.O=C1CC[C@]2(Cc3ccccc3)C(=O)CCCC[C@@H]2C1 [Example 36, (4aS,9aS)-4a-Benzyl-octahydro-benzocycloheptene-2,5-dione; compound with (4aR,9aR)-4a-benzyl-octahydro-benzocycloheptene-2,5-dione]
Second: CC[C@@]1(O)CC[C@@]2(Cc3ccccc3)c3c(cnn3C)CCC[C@H]2C1.CC[C@]1(O)CC[C@]2(Cc3ccccc3)c3c(cnn3C)CCC[C@@H]2C1 [Example 38, (6aS,8R,10aS)-10a-Benzyl-8-ethyl-1-methyl-1,4,5,6,6a,7,8,9,10,10a-decahydro-1,2-diaza-benzo[e]azulen-8-ol; compound with (6aR,8S,10aR)-10a-benzyl-8-ethyl-1-methyl-1,4,5,6,6a,7,8,9,10,10a-decahydro-1,2-diaza-benzo[e]azulen-8-ol]
The pIC50 of the first is lower: under 5.00 for the first, 5.00 to 6.00 for the second.

CC[C@@]1(O)CC[C@]2(Cc3ccccc3)c3c(cnn3C)CCC[C@@H]2C1.CC[C@]1(O)CC[C@@]2(Cc3ccccc3)c3c(cnn3C)CCC[C@H]2C1 [Example 39, (6aS,8S,10aS)-10a-Benzyl-8-ethyl-1-methyl-1,4,5,6,6a,7,8,9,10,10a-decahydro-1,2-diaza-benzo[e]azulen-8-ol; compound with (6aR,8R,10aR)-10a-benzyl-8-ethyl-1-methyl-1,4,5,6,6a,7,8,9,10,10a-decahydro-1,2-diaza-benzo[e]azulen-8-ol] and CC[C@@]1(O)CC[C@@]2(Cc3ccccc3)c3nn(C)cc3CCC[C@H]2C1.CC[C@]1(O)CC[C@]2(Cc3ccccc3)c3nn(C)cc3CCC[C@@H]2C1 [Example 40, (6aS,8R,10aS)-10a-Benzyl-8-ethyl-2-methyl-2,4,5,6,6a,7,8,9,10,10a-decahydro-1,2-diaza-benzo[e]azulen-8-ol; compound with (6aR,8S,10aR)-10a-benzyl-8-ethyl-2-methyl-2,4,5,6,6a,7,8,9,10,10a-decahydro-1,2-diaza-benzo[e]azulen-8-ol] cannot be ordered by pIC50: under 5.00 for the first, under 5.00 for the second.

Going from CC[C@@]1(O)CC[C@]2(Cc3ccccc3)c3nn(C)cc3CCC[C@@H]2C1.CC[C@]1(O)CC[C@@]2(Cc3ccccc3)c3nn(C)cc3CCC[C@H]2C1 [Example 41, (6aS,8S,10aS)-10a-benzyl-8-ethyl-2-methyl-2,4,5,6,6a,7,8,9,10,10a-decahydro-1,2-diaza-benzo[e]azulen-8-ol; compound with (6aR,8R,10aR)-10a-benzyl-8-ethyl-2-methyl-2,4,5,6,6a,7,8,9,10,10a-decahydro-1,2-diaza-benzo[e]azulen-8-ol] to CC[C@@]1(O)CC[C@@]2(Cc3ccccc3)c3ccc(C(=O)Nc4cc(C)nn4C)cc3CCC[C@H]2C1 [Example 76], the pIC50 rises from under 5.00 to over 7.00. The second is the more potent here.

First: Cc1ncccc1NC(=O)c1ccc2c(c1)CCC[C@H]1C[C@@](O)(c3ccccc3)[C@H](O)C[C@@]21Cc1ccccc1 [Example 43, (7aS,9R,10R,11aR)-11a-Benzyl-9,10-dihydroxy-9-phenyl-6,7,7a,8,9,10,11,11a-octahydro-5H-dibenzo[a,c]cycloheptene-3-carboxylic acid (2-methyl-pyridin-3-yl)-amide; compound with (7aR,9S,10S,11aS)-11a-benzyl-9,10-dihydroxy-9-phenyl-6,7,7a,8,9,10,11,11a-octahydro-5H-dibenzo[a,c]cycloheptene-3-carboxylic acid (2-methyl-pyridin-3-yl)-amide]
Second: Cc1ncccc1NC(=O)c1ccc2c(c1)CCC[C@H]1C[C@@](O)(CC#N)CC[C@@]21Cc1ccccc1 [Example 66]
The pIC50 of the first is lower: 6.00 to 7.00 for the first, over 7.00 for the second.

First: CC[C@]1(O)CC[C@]2(CC)c3ccc(C(=O)Nc4cccnc4C)cc3CCC[C@@H]2C1 [Example 46]
Second: CC[C@@]1(O)CC[C@@]2(CC)c3ccc(C(=O)Nc4cccnc4C)cc3CCC[C@H]2C1 [Example 47]
The pIC50 of the first is lower: 6.00 to 7.00 for the first, over 7.00 for the second.

Compared with CC[C@]12CC[C@@](O)(CC(C)C)C[C@H]1CCCc1cc(C(=O)Nc3cccnc3C)ccc12 [Example 48], CC[C@@]12CC[C@](O)(CC(C)C)C[C@@H]1CCCc1cc(C(=O)Nc3cccnc3C)ccc12 [Example 49] is higher in pIC50: 6.00 to 7.00 for the first, over 7.00 for the second. The second is the more potent here.

Compared with CC[C@]12CC[C@@](O)(CC3CC3)C[C@H]1CCCc1cc(C(=O)Nc3cccnc3C)ccc12 [Example 50], CC[C@@]12CC[C@](O)(CC3CC3)C[C@@H]1CCCc1cc(C(=O)Nc3cccnc3C)ccc12 [Example 51] is higher in pIC50: 6.00 to 7.00 for the first, over 7.00 for the second. The second is the more potent here.

First: Cc1ncccc1NC(=O)c1ccc2c(c1)CCC[C@@H]1C[C@](O)(CC#N)CC[C@]21Cc1ccccc1 [Example 67]
Second: CC[C@@]1(O)CC[C@@]2(Cc3ccccc3)c3ccc(C(=O)Nc4ncccc4C)cc3CCC[C@H]2C1 [Example 73]
The pIC50 of the first is lower: 6.00 to 7.00 for the first, over 7.00 for the second.

CC[C@@]1(O)CC[C@@]2(Cc3ccccc3)c3ccc(C(=O)Nc4cnc(C)nc4C)cc3CCC[C@H]2C1 [Example 68, (7aS,9R,11aS)-11a-Benzyl-9-ethyl-9-hydroxy-6,7,7a,8,9,10,11,11a-octahydro-5H-dibenzo[a,c]cycloheptene-3-carboxylic acid (2,4-dimethyl-pyrimidin-5-yl)-amide] and CC[C@@]1(O)CC[C@@]2(Cc3ccccc3)c3ccc(C(=O)Nc4ncc(C)nc4C)cc3CCC[C@H]2C1 [Example 69] cannot be ordered by pIC50: over 7.00 for the first, over 7.00 for the second.

CC[C@@]1(O)CC[C@@]2(Cc3ccccc3)c3ccc(C(=O)Nc4ccncc4C)cc3CCC[C@H]2C1 [Example 70] and CC[C@@]1(O)CC[C@@]2(Cc3ccccc3)c3ccc(C(=O)Nc4cnccc4C)cc3CCC[C@H]2C1 [Example 71] cannot be ordered by pIC50: over 7.00 for the first, over 7.00 for the second.

CC[C@@]1(O)CC[C@@]2(Cc3ccccc3)c3ccc(C(=O)Nc4ccc(C)nc4C)cc3CCC[C@H]2C1 [Example 72] and CC[C@@]1(O)CC[C@@]2(Cc3ccccc3)c3ccc(C(=O)Nc4ccnn4C)cc3CCC[C@H]2C1 [Example 75] cannot be ordered by pIC50: over 7.00 for the first, over 7.00 for the second.

First: CC[C@@]1(O)CC[C@@]2(Cc3ccccc3)c3ccc(C(=O)Nc4nncs4)cc3CCC[C@H]2C1 [Example 74]
Second: CC[C@@]1(O)CC[C@@]2(Cc3ccccc3)c3ccc(C(=O)Nc4nnnn4C)cc3CCC[C@H]2C1 [Example 78]
The pIC50 of the first is lower: 6.00 to 7.00 for the first, over 7.00 for the second. The second is the more potent here.

CC[C@@]1(O)CC[C@@]2(Cc3ccccc3)c3ccc(C(=O)Nc4cc(C)[nH]n4)cc3CCC[C@H]2C1 [Example 79] and CC[C@@]1(O)CC[C@@]2(Cc3ccccc3)c3ccc(C(=O)NCc4cccnc4C)cc3CCC[C@H]2C1 [Example 83, (7aS,9R,11aS)-11a-Benzyl-9-ethyl-9-hydroxy-6,7,7a,8,9,10,11,11a-octahydro-5H-dibenzo[a,c]cycloheptene-3-carboxylic acid (2-methyl-pyridin-3-ylmethyl)-amide] cannot be ordered by pIC50: over 7.00 for the first, over 7.00 for the second.
